Assays:
Assay in all cases: IA-DTB cysteine engagement
Assay type in all cases: binding
Details in all cases: 22Rv1 cells, 20 μM probe, 1 h, relative to DMSO
ALG3_C21 = molecular target: T1, ALG3_C21 (Homo sapiens, UniProt Q92685)
T1 construct: endogenous in cells; host or cells: 22Rv1
T1 sequence (Q92685 1-438): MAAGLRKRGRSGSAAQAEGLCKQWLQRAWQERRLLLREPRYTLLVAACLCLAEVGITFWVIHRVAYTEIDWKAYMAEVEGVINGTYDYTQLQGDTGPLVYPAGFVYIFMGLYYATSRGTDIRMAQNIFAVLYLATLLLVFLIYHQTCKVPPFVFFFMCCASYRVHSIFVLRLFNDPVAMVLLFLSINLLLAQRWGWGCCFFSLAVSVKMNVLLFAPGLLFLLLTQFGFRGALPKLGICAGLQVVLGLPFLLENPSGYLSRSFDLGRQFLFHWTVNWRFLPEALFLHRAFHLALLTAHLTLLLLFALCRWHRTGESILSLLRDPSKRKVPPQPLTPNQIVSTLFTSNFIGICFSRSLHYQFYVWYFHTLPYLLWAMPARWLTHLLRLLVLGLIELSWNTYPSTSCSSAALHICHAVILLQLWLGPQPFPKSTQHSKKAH
Procedure, shortened: (§1)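 Read-out is TMT-based cysteine engagement, expressed as each reporter ion intensity divided by the average of the DMSO channels. Before that, probe-treated cell lysates were capped with IA-DTB, digested, enriched on streptavidin and TMT-tagged. PSMs with DMSO summed intensity <10,000 or DMSO CV >0.5 were excluded.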

MGST3_C56 = molecular target: T2, MGST3_C56 (Homo sapiens, UniProt O14880)
T2 construct: endogenous in cells; host or cells: 22Rv1
Procedure, shortened: as §1

GPAT3_C306 = molecular target: T3, GPAT3_C306 (Homo sapiens, UniProt Q53EU6)
T3 construct: endogenous in cells; host or cells: 22Rv1
T3 sequence (Q53EU6 1-434): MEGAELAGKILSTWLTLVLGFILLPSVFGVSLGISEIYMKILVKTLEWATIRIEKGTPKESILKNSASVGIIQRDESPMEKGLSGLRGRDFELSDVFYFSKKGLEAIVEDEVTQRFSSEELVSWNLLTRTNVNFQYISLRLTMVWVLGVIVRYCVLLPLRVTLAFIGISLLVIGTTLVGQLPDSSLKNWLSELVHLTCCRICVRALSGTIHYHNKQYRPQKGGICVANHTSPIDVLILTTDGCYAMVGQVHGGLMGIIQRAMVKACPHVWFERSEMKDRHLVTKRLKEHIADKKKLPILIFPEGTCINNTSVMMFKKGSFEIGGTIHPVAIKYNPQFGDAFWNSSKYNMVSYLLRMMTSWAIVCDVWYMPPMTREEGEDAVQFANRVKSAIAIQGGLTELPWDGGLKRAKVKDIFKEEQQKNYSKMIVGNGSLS
Procedure, shortened: as §1

NT5DC2_C504 = molecular target: T4, NT5DC2_C504 (Homo sapiens, UniProt Q9H857)
T4 construct: endogenous in cells; host or cells: 22Rv1
T4 sequence (Q9H857 1-520): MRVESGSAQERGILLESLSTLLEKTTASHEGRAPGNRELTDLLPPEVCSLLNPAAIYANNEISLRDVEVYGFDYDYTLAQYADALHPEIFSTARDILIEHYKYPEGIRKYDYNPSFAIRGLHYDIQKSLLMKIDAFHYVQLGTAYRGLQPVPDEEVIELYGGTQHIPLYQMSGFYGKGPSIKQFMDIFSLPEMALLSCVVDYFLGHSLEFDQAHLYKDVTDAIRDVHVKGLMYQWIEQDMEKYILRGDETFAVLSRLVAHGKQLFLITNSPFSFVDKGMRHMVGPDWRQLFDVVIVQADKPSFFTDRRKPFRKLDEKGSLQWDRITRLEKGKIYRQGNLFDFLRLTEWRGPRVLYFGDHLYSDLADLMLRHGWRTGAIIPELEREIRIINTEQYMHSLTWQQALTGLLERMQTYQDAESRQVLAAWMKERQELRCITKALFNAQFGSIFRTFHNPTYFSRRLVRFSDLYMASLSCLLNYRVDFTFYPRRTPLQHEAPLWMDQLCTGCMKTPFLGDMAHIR
Procedure, shortened: as §1

T2 sequence (O14880 whole entry): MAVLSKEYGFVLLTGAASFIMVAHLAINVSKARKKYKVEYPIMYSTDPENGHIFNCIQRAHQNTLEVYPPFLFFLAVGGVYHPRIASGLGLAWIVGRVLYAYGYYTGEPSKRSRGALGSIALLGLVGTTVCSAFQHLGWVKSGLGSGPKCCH

SMILES | % engagement ALG3_C21 (ALG3_C21) [%] | % engagement MGST3_C56 (MGST3_C56) [%] | % engagement GPAT3_C306 (GPAT3_C306) [%] | % engagement NT5DC2_C504 (NT5DC2_C504) [%]
C=CC(=O)N1C[C@@H](c2ccc(Br)cc2)[C@H]1C(=O)Nc1cccc2cccnc12 [MY-1A, (2S,3R)-1-acryloyl-3-(4-bromophenyl)-N-(quinolin-8-yl)azetidine-2-carboxamide] | 90.25 | 58.75 | 75.75 | 85.5
C=CC(=O)N1C[C@H](c2ccc(Br)cc2)[C@@H]1C(=O)Nc1cccc2cccnc12 [MY-1B, (2R,3S)-1-acryloyl-3-(4-bromophenyl)-N-(quinolin-8-yl)azetidine-2-carboxamide] | 68 | 58 | 81.5 | 75
C=CC(=O)N1C[C@H](c2ccc(Br)cc2)[C@H]1C(=O)Nc1cccc2cccnc12 [MY-3A, (2S,3S)-1-acryloyl-3-(4-bromophenyl)-N-(quinolin-8-yl)azetidine-2-carboxamide] | 74.5 | 63.5 | 57 | 54.5
C=CC(=O)N1C[C@H](c2ccc(Br)cc2)[C@H]1C(=O)Nc1cccc2cccnc12 [MY-3B, (2S,3S)-1-acryloyl-3-(4-bromophenyl)-N-(quinolin-8-yl)azetidine-2-carboxamide] | 84.75 | 73.5 | 100 | 59

— patent publication US20250034216A1, “STEREOSELECTIVE COVALENT LIGANDS FOR ONCOGENIC AND IMMUNOLOGICAL PROTEINS” (The Scripps Research Institute, priority 2021, published 2025)
